Measured values reported in US10350199B2, “3-(1h-pyrrolo[2,3-b]pyridin-2-yl)-1h-indazoles and therapeutic uses thereof” (Samumed, LLC, priority 2015, dated 2019).
pEC50: −log10 of the molar value.

Tests used:
Format in all cases: cell-based
[1] = system: Wnt activity (Sp5-Luc reporter, SW480 colon carcinoma cells); experiment: Wnt activity screening assay, Sp5-Luc reporter gene in SW480 cells; conditions: Homo sapiens; for inhibition at 10 µM: SW480, read-out: percent inhibition at 10 μM; for pEC50: Sp5-Luc reporter, SW480 cells, overnight incubation
Excerpt: The screening assay for Wnt activity is described as follows. Reporter cell lines can be generated by stably transducing cancer cell lines (e.g., colon cancer) or primary cells (e.g., IEC-6 intestinal cells) with a lentiviral construct that includes a Wnt-responsive promoter driving expression of the firefly luciferase gene.
SW480 colon carcinoma cells were transduced with a lentiviral vector expressing luciferase with a human Sp5 promoter consisting of a sequence of eight TCF/LEF binding sites. SW480 cells stably expressing the Sp5-Luc reporter gene and a hygromycin resistance gene were selected by treatment with 150 μg/mL of hygromycin for 7 days. These stably transduced SW480 cells were expanded in cell culture and used for all further screening activities. […] For Sp5-Luc reporter gene assays, the cells were plated at 4,000 cells/well in 384-well plates with medium containing 1% fetal bovine serum and incubated overnight at 37° C. and 5% CO2. Following incubation, 20 μl of BrightGlo luminescence reagent (Promega) was added to each well of the 384-well assay plates. The plates were placed on an orbital shaker for 2 min and then luminescence was quantified using the Envision (Perkin Elmer) plate reader. Readings were normalized to DMSO only treated cells, and normalized activities were utilized for EC50 calculations using the dose-response log (inhibitor) vs. response -variable slope (four parameters) nonlinear regression feature available in GraphPad Prism 5.0 (or Dotmatics).

SW480 colon cancer cells = experiment: Cell viability assay (CellTiter-Blue), SW480 cells, four days; conditions: Homo sapiens; for pEC50: 96 h, SW480 cell viability, four days, CellTiter-Blue; for inhibition at 10 µM: SW480, read-out: percent inhibition at 10 μM
Protocol: Representative compounds were screened using the following assay procedure to assess the effect on cell viability as described below.
Approximately 2×10^3 SW480 colon cancer cells were seeded into each well and allowed to incubate in the presence or absence of compound for four days at 37° C./5% CO2. Eight replicates of DMSO-treated cells served as controls and cells treated with compound were performed in duplicate.
After incubation, 20 μL of CellTiter-Blue (Promega) was added to each well allowed to incubate for approximately 3 hours. This reagent was a buffered solution which contains resazurin, metabolically active cells were able to reduce rezarurin (blue) into resorufin (pink) which was highly fluorescent. This measured fluorescence was used as a readout for cell viability.

[2] = system: primary human fibroblasts derived from IPF patients (LL29 cells) treated with TGF-β1; experiment: Inhibition of the fibrotic process: αSMA staining in TGF-β1 treated LL29 fibroblasts; conditions: Fibroblast; for pEC50: 96 h, LL29 cells, TGF-β1 20 ng/mL, 4 days, % αSMA positive cells; for inhibition at 10 µM: read-out: percent inhibition at 10 μM
Protocol: Representative compounds were screened using primary human fibroblasts (derived from IPF patients) treated with TGF-β1 to determine their ability to inhibit the fibrotic process.
LL29 cells are plated at 1,500 cells/well in 80 μL/well F12 medium supplemented with 1% Fetal Bovine Serum. […] Wells treated with TGF-β1 and containing DMSO were used as controls. […] Following incubation for 4 days, SYTOX green nucleic acid stain (Life Technologies [Thermo Fisher Scientific]) was added to the wells at a final concentration of 1 μM and incubated at room temperature for 30 min.

[3] = system: IL-6 (THP-1 human monocyte cell line); experiment: IL-6 inhibition in LPS-stimulated THP-1 cells (HTRF); conditions: for pEC50: IL-6 inhibition, LPS-stimulated THP-1 cells, HTRF; for inhibition at 10 µM: THP-1, read-out: percentage in parentheses beside EC50 >10 (IL-6 inhibition)
Protocol: THP-1 cells were cultured in basal media with 1% FBS for 24 hours before the start of the assay. […] THP-1 cells were plated at 5000 cells/well in the 384-well plates and incubated at 37° C. for 2 h. 500 ng/mL of LPS was added after 2 hours and cells were incubated for another 22 hours at 37° C. Plates were spun in a centrifuge for 1 minute at […] and a mixture of anti-IL6 XL665, and anti-IL6 Cryptate diluted in reconstitution buffer (Cisbio Inc.) was added to each well. Following incubation for 3 hrs at room temperature, Homogeneous Time-Resolved Fluorescence (HTRF) was measured using the Envision (Perkin Elmer) at 665 nm and […]. The ratio of fluorescence at 665 nm to 620 nm was used as a readout for IL6 quantification. All samples were processed in duplicate. Readings were normalized to DMSO treated cells and normalized activities were utilized for EC50 calculations using the dose-response log (inhibitor) vs. response -variable slope (four parameters) nonlinear regression feature available in GraphPad Prism 5.0 (or Dotmatics).

Row | Structure (SMILES) | inhibition at 10 µM [1] [%] | pEC50 [1] | pEC50 (SW480 colon cancer cells) | inhibition at 10 µM (SW480 colon cancer cells) [%] | pEC50 [2] | inhibition at 10 µM [2] [%] | pEC50 [3] | inhibition at 10 µM [3] [%]
1 | c1ccc(-c2ccc3[nH]nc(-c4cc5c(-c6ccoc6)ccnc5[nH]4)c3c2)nc1 [Compound 336, 3-(4-(Furan-3-yl)-1H-pyrrolo[2,3-b]pyridin-2-yl)-5-(pyridin-2-yl)-1H-indazole] | 11 | < 5.00 | < 5.00 | 0 | < 5.00 | 0 | < 5.00 | 45.1
2 | CC(C)CC(=O)Nc1cncc(-c2ccc3[nH]nc(-c4cc5c(-c6cccs6)ccnc5[nH]4)c3c2)c1 [Compound 338, 3-Methyl-N-(5-(3-(4-(thiophen-2-yl)-1H-pyrrolo[2,3-b]pyridin-2-yl)-1H-indazol-5-yl)pyridin-3-yl)butanamide] |  | 6.48 | 6.13 |  | 6.24 |  | 7.33 | 
3 | CC(C)(C)C(=O)Nc1cncc(-c2ccc3[nH]nc(-c4cc5c(-c6cccs6)ccnc5[nH]4)c3c2)c1 [Compound 344, N-(5-(3-(4-(Thiophen-2-yl)-1H-pyrrolo[2,3-b]pyridin-2-yl)-1H-indazol-5-yl)pyridin-3-yl)pivalamide] |  | 6.67 | 6.22 |  | < 5.00 | 0 | 7.28 | 
4 | CN(C)Cc1cncc(-c2ccc3[nH]nc(-c4cc5c(-c6cccs6)ccnc5[nH]4)c3c2)c1 [Compound 349, N,N-Dimethyl-1-(5-(3-(4-(thiophen-2-yl)-1H-pyrrolo[2,3-b]pyridin-2-yl)-1H-indazol-5-yl)pyridin-3-yl)methanamine] |  | 5.41 | 5.33 |  | 6.06 |  | 7.04 | 
5 | CC(C)(C)CC(=O)Nc1cncc(-c2ccc3[nH]nc(-c4cc5c(-c6cccs6)ccnc5[nH]4)c3c2)c1 [Compound 352, 3,3-Dimethyl-N-(5-(3-(4-(thiophen-2-yl)-1H-pyrrolo[2,3-b]pyridin-2-yl)-1H-indazol-5-yl)pyridin-3-yl)butanamide] |  | 6.36 | 6.06 |  | 6.45 |  | 7.14 | 
6 | CCCC(=O)Nc1cncc(-c2ccc3[nH]nc(-c4cc5c(-c6cccs6)ccnc5[nH]4)c3c2)c1 [Compound 353, N-(5-(3-(4-(Thiophen-2-yl)-1H-pyrrolo[2,3-b]pyridin-2-yl)-1H-indazol-5-yl)pyridin-3-yl)butyramide] |  | 7.40 | 5.89 |  | 5.29 |  | < 5.00 | 37.5
7 | c1ccc(-c2ccc3[nH]nc(-c4cc5c(-c6cccs6)ccnc5[nH]4)c3c2)nc1 [Compound 364, 5-(Pyridin-2-yl)-3-(4-(thiophen-2-yl)-1H-pyrrolo[2,3-b]pyridin-2-yl)-1H-indazole] |  | 5.47 | 5.94 |  | 5.66 |  | 5.80 | 
8 | Fc1ccc(-c2ccnc3[nH]c(-c4n[nH]c5ccc(C6=CCNCC6)cc45)cc23)cc1 [Compound 522, 3-(4-(4-Fluorophenyl)-1H-pyrrolo[2,3-b]pyridin-2-yl)-5-(1,2,3,6-tetrahydropyridin-4-yl)-1H-indazole] |  | 5.49 | < 5.00 | 19.2 | 5.41 |  | < 5.00 | 48.7
9 | CN(C)CCOc1cncc(-c2ccc3[nH]nc(-c4cc5c(-c6ccc(F)cc6)ccnc5[nH]4)c3c2)c1 [Compound 531, 2-((5-(3-(4-(4-Fluorophenyl)-1H-pyrrolo[2,3-b]pyridin-2-yl)-1H-indazol-5-yl)pyridin-3-yl)oxy)-N,N-dimethylethan-1-amine] | 2.3 | < 5.00 | < 5.00 | 4.1 | < 5.00 | 15.6 | < 5.00 | 0
